From PMC13366330 (Acta Pharmaceutica Sinica. B, 2025)

Legend:
TAMs in tumor tissue = test: M2 polarization of TAMs in tumor tissue, flow cytometry; assay type: in vivo, C57 mice; conditions: 10 mg/kg, intraperitoneal
[1] = Body and organ weights, organ H&E in the antitumor experiment; assay type: in vivo, C57 mice; conditions: 100 mg/kg, intraperitoneal

Row | spleen weight [1] | Structure (SMILES) | percentage of M2 polarization in TAMs (TAMs in tumor tissue) | liver H&E finding [1]
1 | – | C[C@H](NC(=O)c1c(N)nn2cccnc12)c1cc2cccc(C#Cc3cnn(C)c3)c2c(=O)n1-c1ccccc1 [IPI-549] | 15.40% | –
2 | significant decrease | CN(C)/N=N/c1[nH]cnc1C(N)=O [dacarbazine] | – | coagulative necrosis
